Values after ≈ are worked out from the molar mass of the structure shown. Where two headings read alike, the source gives them in different places.
Assays:
P. aeruginosa ATCC 27853 = assay: MIC, selected panel of Gram-positive and Gram-negative strains (Example 5); assay type: cell-based
E. coli ATCC 25922 = assay: as above; assay type: cell-based, Escherichia coli
[1] = test system: S. aureus ATCC 43300 (MRSA, FQ-S); assay: as above; assay type: cell-based, Staphylococcus aureus
B. thailandensis E264 = assay: microbe, parasite or virus in culture; assay type: cell-based, Burkholderia thailandensis; conditions: for MIC: Burkholderia thailandensis, E264, read-out: MIC B. thailandensis E264
S. aureus ATCC 25923 = assay: MIC, selected panel of Gram-positive and Gram-negative strains (Example 5); assay type: cell-based
[2] = test system: S. aureus BAA-1556 (USA300-Type MRSA, FQ-R); assay: as above; assay type: cell-based, Staphylococcus aureus
A. baumannii ATCC 19606 = assay: as above; assay type: cell-based, Acinetobacter baumannii
[3] = Pseudomonas aeruginosa, ATCC27853, read-out: MIC P. aeruginosa ATCC 27853
[4] = Escherichia coli, ATCC25922, read-out: MIC E. coli ATCC 25922
[5] = Staphylococcus aureus, read-out: MIC S. aureus ATCC 43300 (MRSA, FQ-S)
[6] = Staphylococcus aureus, ATCC25923, read-out: MIC S. aureus ATCC 25923
[7] = Staphylococcus aureus, read-out: MIC S. aureus BAA-1556 (USA300-Type MRSA, FQ-R)
[8] = Acinetobacter baumannii, ATCC19606, read-out: MIC A. baumannii ATCC 19606
[9] = Pseudomonas aeruginosa, ATCC27853; read-out: MIC P. aeruginosa ATCC 27853
[10] = Escherichia coli, ATCC25922; read-out: MIC E. coli ATCC 25922
[11] = Staphylococcus aureus; read-out: MIC S. aureus ATCC 43300 (MRSA, FQ-S)
[12] = Staphylococcus aureus, ATCC25923; read-out: MIC S. aureus ATCC 25923
[13] = Staphylococcus aureus; read-out: MIC S. aureus BAA-1556 (USA300-Type MRSA, FQ-R)
[14] = Acinetobacter baumannii, ATCC19606; read-out: MIC A. baumannii ATCC 19606

Row | Compound | MIC (P. aeruginosa ATCC 27853; [3]) [µg/mL] | MIC (E. coli ATCC 25922; [4]) [µg/mL] | MIC [1, 5] [µg/mL] | MIC (B. thailandensis E264) [µg/mL] | MIC (S. aureus ATCC 25923; [6]) [µg/mL] | MIC [2, 7] [µg/mL] | MIC (A. baumannii ATCC 19606; [8]) [µg/mL] | MIC (P. aeruginosa ATCC 27853; [9]) [µg/mL] | MIC (E. coli ATCC 25922; [10]) [µg/mL] | MIC [1, 11] [µg/mL] | MIC (S. aureus ATCC 25923; [12]) [µg/mL] | MIC [2, 13] [µg/mL] | MIC (A. baumannii ATCC 19606; [14]) [µg/mL] | MIC E. coli ATCC 25922 (E. coli ATCC 25922) [µg/mL] | MIC S. aureus ATCC 43300 (MRSA, FQ-S) [1] | MIC B. thailandensis E264 (B. thailandensis E264) [µg/mL] | MIC S. aureus BAA-1556 (USA300-Type MRSA, FQ-R) [2] [µg/mL] | MIC A. baumannii ATCC 19606 (A. baumannii ATCC 19606) [µg/mL]
1 | Cc1c(-c2ccc(O)nc2)ccn2c(=O)c(C(=O)[O-])cc(C3CC3)c12.[K+] [Compound 55K salt, potassium 8-(6-hydroxypyridin-3-yl)-1-cyclopropyl-9-methyl-4-oxo-4H-quinolizine-3-carboxylate] | > 8 | 0.5 | 0.125 to 0.25 | 8 | 0.5 | 8 | 8 |  |  |  |  |  |  |  |  |  |  | 
2 | Cc1c(-c2cn[nH]c2)ccn2c(=O)c(C(=O)[O-])cc(C3CC3)c12.[K+] [Compound 67K salt, potassium 8-(1H-pyrazol-4-yl)-1-cyclopropyl-9-methyl-4-oxo-4H-quinolizine-3-carboxylate] | 2 | 0.032 | 0.016 | 0.25 | 0.016 | 1 | 0.25 |  |  |  |  |  |  |  |  |  |  | 
3 | Cc1c(C2=CCNCC2)c(F)cn2c(=O)c(C(=O)[O-])cc(C3CC3)c12.[K+] [Compound 62K salt, potassium 8-(1,2,3,6-tetrahydropyridin-4-yl)-1-cyclopropyl-7-fluoro-9-methyl-4-oxo-4H-quinolizine-3-carboxylate] | 1 | 0.032 |  | 2 | 0.25 | 4 | 1 |  |  |  |  |  |  |  |  |  |  | 
4 | Cc1c(-c2ccncc2F)ccn2c(=O)c(C(=O)[O-])cc(C3CC3)c12.[K+] [Compound 58K salt, potassium 8-(3-fluoropyridin-4-yl)-1-cyclopropyl-9-methyl-4-oxo-4H-quinolizine-3-carboxylate] | > 8 | 0.25 | 0.064 | 1 | 0.064 | 1 to 2 | 1 |  |  |  |  |  |  |  |  |  |  | 
5 | Cc1c(-c2cnc(N)nc2)ccn2c(=O)c(C(=O)O)cc(C3CC3)c12 [Compound 57, 8-(2-aminopyrimidin-5-yl)-1-cyclopropyl-9-methyl-4-oxo-quinolizine-3-carboxylic acid] |  |  |  | > 8 |  |  |  | > 8 | 1 (≈ 2.97 µM) | 0.25 (≈ 0.743 µM) | 0.25 to 0.5 (≈ 0.743 to 1.49 µM) | 8 (≈ 23.8 µM) | 8 (≈ 23.8 µM) |  |  |  |  | 
6 | Cc1c(-c2ccc3c(c2)NC(=O)C(N)C3)ccn2c(=O)c(C(=O)O)cc(C3CC3)c12 (stereo not shown) [Compound 54, 8-(3-amino-2-oxo-3,4-dihydro-1H-quinolin-7-yl)-1-cyclopropyl-9-methyl-4-oxo-quinolizine-3-carboxylic acid] |  |  |  | 4 (≈ 9.91 µM) |  |  |  | > 8 | 0.25 (≈ 0.62 µM) | 0.064 (≈ 0.159 µM) | 0.064 to 0.125 (≈ 0.159 to 0.31 µM) | 0.5 (≈ 1.24 µM) | 4 (≈ 9.91 µM) |  |  |  |  | 
7 | Cc1c(-c2ccc(N)c(CN)c2)ccn2c(=O)c(C(=O)[O-])cc(C3CC3)c12.[K+] [Compound 76K salt, potassium 8-(4-amino-3-(aminomethyl)phenyl)-1-cyclopropyl-9-methyl-4-oxo-4H-quinolizine-3-carboxylate] | 1 | 0.032 | 0.008 to 0.016 | 2 | 0.016 | 0.25 | 0.25 |  |  |  |  |  |  |  |  |  |  | 
8 | Cc1c(-c2ccc3[nH]ncc3c2)c(F)cn2c(=O)c(C(=O)[O-])cc(C3CC3)c12.[K+] [Compound 75K salt, potassium 8-(1H-indazol-5-yl)-1-cyclopropyl-7-fluoro-9-methyl-4-oxo-4H-quinolizine-3-carboxylate] | 1 | 0.032 | ≤ 0.004 | 0.25 | ≤ 0.004 | 0.032 | 0.064 |  |  |  |  |  |  |  |  |  |  | 
9 | Cc1c(-c2ccncc2)c(F)cn2c(=O)c(C(=O)[O-])cc(C3CC3)c12.[K+] [Compound 59K salt, potassium 8-(pyridin-4-yl)-1-cyclopropyl-7-fluoro-9-methyl-4-oxo-4H-quinolizine-3-carboxylate] | 4 | 0.064 | 0.016 | 0.5 | 0.032 | 0.5 | 0.25 |  |  |  |  |  |  |  |  |  |  | 
10 | Cc1cc(-c2ccn3c(=O)c(C(=O)[O-])cc(C4CC4)c3c2C)ccn1.[K+] [Compound 65K salt, potassium 8-(2-methylpyridin-4-yl)-1-cyclopropyl-9-methyl-4-oxo-4H-quinolizine-3-carboxylate] | 4 | 0.032 to 0.064 | 0.008 | 0.5 | 0.016 | 0.25 | 0.25 |  |  |  |  |  |  |  |  |  |  | 
11 | Cc1n[nH]c2ccc(-c3ccn4c(=O)c(C(=O)[O-])cc(C5CC5)c4c3C)cc12.[K+] [Compound 80K salt, potassium 8-(3-methyl-1H-indazol-5-yl)-1-cyclopropyl-9-methyl-4-oxo-4H-quinolizine-3-carboxylate] | 4 | 0.064 | ≤ 0.004 | 1 | ≤ 0.004 |  | 0.25 |  |  |  |  |  |  |  |  |  |  | 
12 | Cc1c(-c2cnc3[nH]ccc3c2)ccn2c(=O)c(C(=O)[O-])cc(C3CC3)c12.[K+] [Compound 85K salt, potassium 8-(1H-pyrrolo[2,3-b]pyridin-5-yl)-1-cyclopropyl-9-methyl-4-oxo-4H-quinolizine-3-carboxylate] | 1 | 0.032 | ≤ 0.004 | 0.25 | ≤ 0.004 | 0.064 to 0.125 | 0.064 |  |  |  |  |  |  |  |  |  |  | 
13 | Cc1c(-c2ccc3c(c2)C(=O)NC3)ccn2c(=O)c(C(=O)[O-])cc(C3CC3)c12.[K+] [Compound 68K salt, potassium 8-(3-oxoisoindolin-5-yl)-1-cyclopropyl-9-methyl-4-oxo-4H-quinolizine-3-carboxylate] | 2 | 0.064 | ≤ 0.004 | 1 | ≤ 0.004 | 0.25 | 0.25 |  |  |  |  |  |  |  |  |  |  | 
14 | Cc1cc(-c2ccn3c(=O)c(C(=O)[O-])cc(C4CC4)c3c2C)cnc1N.[K+] [Compound 79K salt, potassium 8-(6-amino-5-methylpyridin-3-yl)-1-cyclopropyl-9-methyl-4-oxo-4H-quinolizine-3-carboxylate] | 2 | 0.016 | ≤ 0.004 | 0.5 | ≤ 0.004 |  | 0.064 |  |  |  |  |  |  |  |  |  |  | 
15 | Cc1c(-c2ccc(CN)cc2)c(F)cn2c(=O)c(C(=O)[O-])cc(C3CC3)c12.[K+] [Compound 6K salt] |  |  |  |  |  |  |  |  |  |  |  |  |  | 0.064 to 0.125 | 0,064 μg/mL | 4 | 1 | 1
16 | Cc1c(-c2ccc(N)nc2)c(F)cn2c(=O)c(C(=O)[O-])cc(C3CC3)c12.[K+] [Compound 60K salt, potassium 8-(6-aminopyridin-3-yl)-1-cyclopropyl-7-fluoro-9-methyl-4-oxo-4H-quinolizine-3-carboxylate] | 2 | 0.032 |  | 0.5 | 0.008 | 0.125 | 0.064 |  |  |  |  |  |  |  |  |  |  | 
17 | Cc1c(-c2ccc3cn[nH]c3c2)ccn2c(=O)c(C(=O)[O-])cc(C3CC3)c12.[K+] [Compound 83K salt, potassium 8-(1H-indazol-6-yl)-1-cyclopropyl-9-methyl-4-oxo-4H-quinolizine-3-carboxylate] | 0.5 | 0.016 | ≤ 0.004 |  | ≤ 0.004 | 0.064 | 0.032 |  |  |  |  |  |  |  |  |  |  | 
